Source: patent US10786483B2, “Tumescent contravenom drug delivery” (HK Pharma, priority 2016, dated 2020)
Where two headings read alike, the source gives them in different places.

Key:
[1] = target: Bee Venom sPLA2 (Apis mellifera, UniProt P00630); details: cited from earlier work
[2] = test system: sPLA2 activity in serum; details: rat serum; read-out: IC50, inhibitory effect on sPLA2 activity in serum; cited from earlier work
[3] = test system: sPLA2 activity in serum; details: rabbit serum; read-out: IC50, inhibitory effect on sPLA2 activity in serum; cited from earlier work
[4] = test system: sPLA2 activity in serum; details: guinea pig serum; read-out: IC50, inhibitory effect on sPLA2 activity in serum; cited from earlier work
[5] = test system: sPLA2 activity in serum; details: human serum; read-out: IC50, inhibitory effect on sPLA2 activity in serum; cited from earlier work
[6] = test system: snake venoms; details: mice; cited from earlier work
[7] = precipitation on mixing acyclovir, lidocaine and epinephrine; assay type: physicochemical
Excerpt: Some drugs are considered incompatible because of precipitation when mixed together in the same solution. […] This tumescent solution can be safely and painlessly injected subcutaneously into a human patient. This is surprising and unexpected because the FDA approved package insert labeling for acyclovir for IV infusion states explicitly the subcutaneous delivery must be avoided. Similar increased solubility and drug-drug compatibility of mixtures of multiple contravenom drugs can be expected with sufficient tumescent dilution. This is a unique and unexpected advantage of tumescent contravenom delivery.

[8] = test system: platelet aggregation; details: cited from earlier work
[9] = Excerpt: Heart rates, before, during, and after tumescent infiltration and immediately after liposuction were compared.
[10] = tolerance interval analysis, probability that Cmax >=6 μg/mL; parameters: species or system human; details: 99% confidence
Procedure: Tolerance intervals were calculated at a 99% level of confidence.

[11] = 41 procedures, 14 subjects, 19.2 to 52 mg/kg, over the 24-hour study period
Procedure: Volunteers participated in 1 to 2 infiltration studies without liposuction and then one study with tumescent liposuction totally by local anesthesia.
Individual subjects served as their own controls. Large volume (≥500 mL) tumescent infiltration was accomplished using a peristaltic tumescent infiltration pump (HKSurgical.com, San Clemente, Calif.).
Serum samples were obtained from a peripheral vein using an indwelling 20-gauge IV catheter by a 2-syringe sampling technique. The first syringe contained 2 mL saline to flush the IV catheter and then remove and discard 2 mL of blood.
For each subject, the initial infiltration procedures were done without subsequent liposuction, and the final tumescent infiltration was followed by liposuction after allowing at least 1 hour of detumescence for gradual dispersion of subcutaneous tumescent fluid. Tumescent infiltration procedures were separated by at least 1 week. The liposuction aspirate was collected in clear plastic volumetric canisters. After allowing at least 1 hour for gravitational separation of the lipid and aqueous aspirate, the resulting supernatant fat, infranatant blood-tinged tumescent anesthetic solution, and the total aspirate volume were recorded.
AUC∞, Cmax, and Tmax without and with liposuction were compared by the paired t test.

[12] = test system: lymphatic smooth muscle contraction; details: rats, applied topically; cited from earlier work
[13] = cited from earlier work
[14] = with liposuction, epinephrine dose 1.6 to 4.3 mg
[15] = without liposuction, epinephrine dose 1.2 to 4.3 mg

Chain of Bee Venom sPLA2 (P00630 34-167 limits assumed): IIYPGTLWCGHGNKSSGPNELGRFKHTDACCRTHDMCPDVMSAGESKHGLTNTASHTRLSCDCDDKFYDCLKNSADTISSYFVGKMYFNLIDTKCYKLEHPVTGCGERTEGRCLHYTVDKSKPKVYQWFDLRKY

## CCc1c(C(=O)C(N)=O)c2c(OCC(=O)OC)cccc2n1Cc1ccccc1 [Me-Varespladib, methyl varespladib]
[1]
  IC50, sPLA2 inhibition: *Indeterminate

## CCc1c(C(=O)C(N)=O)c2c(OCC(=O)O)cccc2n1Cc1ccccc1 [Varespladib]
[2]
  IC50: 8.1 nM
[3]
  IC50: 5 nM
[4]
  IC50: 3.2 nM
[5]
  IC50: 6.2 nM
[6]
  neutralizing a wide variety of snake venoms: effective

## Nc1nc2c(ncn2COCCO)c(=O)[nH]1 [acyclovir]
[7]; 1 gm acyclovir (1 g/20 ml) with 1 gram lidocaine (1 gram/100 ml) with epinephrine (1 mg/L), 120 ml mixture
  precipitation on mixing: immediate precipitation
[7]; 1 gm acyclovir and 1 gm lidocaine in 100 ml, 250 ml and 500 ml of saline
  precipitation on mixing: precipitation
[7]; 1 gm acyclovir, 1 gm lidocaine and 1 mg epinephrine in 1000 ml of saline
  precipitation on mixing: no precipitation

## CCOC(=O)c1ccc(N)cc1 [benzocaine]
[8]
  platelet aggregation induced by ADP: inhibit

## CCCCN1CCCCC1C(=O)Nc1c(C)cccc1C (centres unmarked) [bupivacaine]
[8]
  platelet aggregation induced by ADP: inhibit

## CNC[C@H](O)c1ccc(O)c(O)c1 [epinephrine]
[9]; 14 subjects, 41 procedures
  clinical evidence of toxicity: no clinical evidence
[9]; 41 studies, most patients received oral clonidine 0.1 mg
  episodes of tachycardia: no episodes
[9]; [14]
  mean difference in heart rate before infiltration and after liposuction: +5
  range of difference in heart rate before infiltration and after liposuction: −12 to +33
[9]; [15]
  mean difference in heart rate before and after infiltration: −3.4
  range of difference in heart rate before and after infiltration: −24 to +17

## CCN(CC)CC(=O)Nc1c(C)cccc1C [lidocaine]
[10]; No liposuction, 40 mg/kg
  risk of lidocaine serum concentration >6 μg/mL: 1/750
[10]; No liposuction, 50 mg/kg
  risk of lidocaine serum concentration >6 μg/mL: 1/15
[10]; No liposuction, 55 mg/kg
  risk of lidocaine serum concentration >6 μg/mL: 1/4
[10]; No liposuction, […] mg/kg
  risk of lidocaine serum concentration >6 μg/mL: 1/80
[10]; With liposuction, 50 mg/kg
  risk of lidocaine serum concentration >6 μg/mL: 1/500
[10]; With liposuction, 55 mg/kg
  risk of lidocaine serum concentration >6 μg/mL: 1/100
[9]; one subject, body mass index 20, 45 mg/kg without liposuction, approximately 12 hours after infiltration
  lidocaine-associated adverse event: transient nausea
[11]
  measured serum lidocaine concentrations, all: < 6 µg/mL
[8]; aggregation induced by ADP, epinephrine and collagen
  lidocaine concentrations that consistently inhibit in-vitro platelet aggregation: ≥ 0.5 mg/mL
[8]; at safe systemic concentrations (e.g. ≤6 micrograms/ml)
  effect on platelet aggregation: no effect
[8]
  platelet aggregation induced by ADP: inhibit
[12]
  lymph transit time: prolong
  survival time after injection of venom: increase
[13]; lidocaine with epinephrine, infiltration local anesthesia
  recommended maximal dosage, FDA-approved package insert labeling: 7 mg/kg
[13]; liposuction totally by local anesthesia
  maximal safe dosage recommended by American Society for Dermatologic Surgery guidelines: 55 mg/kg
